Measured values published in patent publication US6339042B1, “Herbicidal N-cyclohexadienyl heteroaryloxyacetamides” (American Cyanamid Co., priority 1999, dated 2002).

Assays:
Conditions in all cases: three weeks after treatment
Amaranthus tuberculatus [1] = assay: Post-emergence herbicidal evaluation, AMATA; format: in vivo
Setaria viridis [2] = assay: Post-emergence herbicidal evaluation, SETVI
Alopecurus myosuroides [3] = assay: Pre-emergence herbicidal evaluation, ALOMY; format: in vivo
Text: (§1) The treated pots are then placed on greenhouse benches, watered and cared for in accordance with conventional greenhouse procedures.

Lolium perenne [4] = assay: Post-emergence herbicidal evaluation, LOLPE
Experimental: (§2) Each pot is examined three weeks after treatment and phytotoxicity is assessed according to the rating system set forth below.
(§3) These acetone solutions are diluted with water and the resulting formulations applied at dosage levels equivalent of about 0.4 to 0.1 kg per hectare of test compound per pot. After spraying the plants are placed on greenhouse benches and are cared for in the usual manner, commensurate with conventional greenhouse practices.

Zea mays [5] = assay: Post-emergence herbicidal evaluation, ZEAMX
Experimental: as §2, §3

Glycine max [6] = assay: Post-emergence herbicidal evaluation, GLXMA
Triticum aestivum [7] = assay: Pre-emergence herbicidal evaluation, TRZAW; format: in vivo
Text: as §1

Oryza sativum [8] = assay: Post-emergence herbicidal evaluation, ORYSA
Lolium perenne [9] = assay: Pre-emergence herbicidal evaluation, LOLPE; format: in vivo
Text: as §1

Hordeum vulgare [10] = assay: Pre-emergence herbicidal evaluation, HORVW; format: in vivo
Text: as §1

Hordeum vulgare [11] = assay: Post-emergence herbicidal evaluation, HORVW
Setaria viridis [12] = assay: Pre-emergence herbicidal evaluation, SETVI; format: in vivo
Text: as §1

Triticum aestivum [13] = assay: Post-emergence herbicidal evaluation, TRZAW
Glycine max [14] = assay: Pre-emergence herbicidal evaluation, GLXMA; format: in vivo
Text: as §1

Galium aparine = assay: Post-emergence herbicidal evaluation, GALAP
Zea mays [15] = assay: Pre-emergence herbicidal evaluation, ZEAMX; format: in vivo
Text: as §1

Echinochloa crus-galli [16] = assay: Post-emergence herbicidal evaluation, ECHCG
Echinochloa crus-galli [17] = assay: Pre-emergence herbicidal evaluation, ECHCG; format: in vivo
Text: as §1

Alopecurus myosuroides [18] = assay: Post-emergence herbicidal evaluation, ALOMY
Apera spica venti [19] = assay: Post-emergence herbicidal evaluation, APESV
Amaranthus tuberculatus [20] = assay: Pre-emergence herbicidal evaluation, AMATA; format: in vivo
Text: as §1

Oryza sativum [21] = assay: Pre-emergence herbicidal evaluation, ORYSA; format: in vivo
Text: as §1

Apera spica venti [22] = assay: Pre-emergence herbicidal evaluation, APESV; format: in vivo
Text: as §1

CCc1nnc(OCC(=O)N(C)C2=CC(C)(C)CC(C)=C2)s1 [Example 5]
phytotoxicity rating AMATA (Amaranthus tuberculatus [1]; 0.100 kg/ha): 0 (0 - No effect) | phytotoxicity rating AMATA (Amaranthus tuberculatus [1]; 0.200 kg/ha): 0 (0 - No effect) | phytotoxicity rating AMATA (Amaranthus tuberculatus [1]; 0.400 kg/ha): 3 (3 - Moderate effect) | phytotoxicity rating SETVI (Setaria viridis [2]; 0.100 kg/ha): 0 (0 - No effect) | phytotoxicity rating SETVI (Setaria viridis [2]; 0.200 kg/ha): 0 (0 - No effect) | phytotoxicity rating SETVI (Setaria viridis [2]; 0.400 kg/ha): 0 (0 - No effect) | phytotoxicity rating ALOMY (Alopecurus myosuroides [3]; 0.100 kg/ha): 3 (3 - Moderate effect) | phytotoxicity rating ALOMY (Alopecurus myosuroides [3]; 0.200 kg/ha): 8 (8 - Approaching complete kill) | phytotoxicity rating ALOMY (Alopecurus myosuroides [3]; 0.400 kg/ha): 9 (9 - Complete kill) | phytotoxicity rating ALOMY (Alopecurus myosuroides [3]; 0.800 kg/ha): 9 (9 - Complete kill) | phytotoxicity rating LOLPE (Lolium perenne [4]; 0.100 kg/ha): 0 (0 - No effect) | phytotoxicity rating LOLPE (Lolium perenne [4]; 0.200 kg/ha): 1 (1 - Trace effect) | phytotoxicity rating LOLPE (Lolium perenne [4]; 0.400 kg/ha): 4 (4 - Injury) | phytotoxicity rating ZEAMX (Zea mays [5]; 0.100 kg/ha): 0 (0 - No effect) | phytotoxicity rating ZEAMX (Zea mays [5]; 0.200 kg/ha): 0 (0 - No effect) | phytotoxicity rating ZEAMX (Zea mays [5]; 0.400 kg/ha): 0 (0 - No effect) | phytotoxicity rating GLXMA (Glycine max [6]; 0.100 kg/ha): 5 (5 - Definite injury) | phytotoxicity rating GLXMA (Glycine max [6]; 0.200 kg/ha): 5 (5 - Definite injury) | phytotoxicity rating GLXMA (Glycine max [6]; 0.400 kg/ha): 5 (5 - Definite injury) | phytotoxicity rating TRZAW (Triticum aestivum [7]; 0.100 kg/ha): 0 (0 - No effect) | phytotoxicity rating TRZAW (Triticum aestivum [7]; 0.200 kg/ha): 0 (0 - No effect) | phytotoxicity rating TRZAW (Triticum aestivum [7]; 0.400 kg/ha): 1 (1 - Trace effect) | phytotoxicity rating TRZAW (Triticum aestivum [7]; 0.800 kg/ha): 1 (1 - Trace effect) | phytotoxicity rating ORYSA (Oryza sativum [8]; 0.100 kg/ha): 0 (0 - No effect) | phytotoxicity rating ORYSA (Oryza sativum [8]; 0.200 kg/ha): 1 (1 - Trace effect) | phytotoxicity rating ORYSA (Oryza sativum [8]; 0.400 kg/ha): 1 (1 - Trace effect) | phytotoxicity rating LOLPE (Lolium perenne [9]; 0.100 kg/ha): 5 (5 - Definite injury) | phytotoxicity rating LOLPE (Lolium perenne [9]; 0.200 kg/ha): 5 (5 - Definite injury) | phytotoxicity rating LOLPE (Lolium perenne [9]; 0.400 kg/ha): 5 (5 - Definite injury) | phytotoxicity rating LOLPE (Lolium perenne [9]; 0.800 kg/ha): 7 (7 - Good herbicidal effect) | phytotoxicity rating HORVW (Hordeum vulgare [10]; 0.100 kg/ha): 0 (0 - No effect) | phytotoxicity rating HORVW (Hordeum vulgare [10]; 0.200 kg/ha): 2 (2 - Slight effect) | phytotoxicity rating HORVW (Hordeum vulgare [10]; 0.400 kg/ha): 3 (3 - Moderate effect) | phytotoxicity rating HORVW (Hordeum vulgare [10]; 0.800 kg/ha): 4 (4 - Injury) | phytotoxicity rating HORVW (Hordeum vulgare [11]; 0.100 kg/ha): 0 (0 - No effect) | phytotoxicity rating HORVW (Hordeum vulgare [11]; 0.200 kg/ha): 0 (0 - No effect) | phytotoxicity rating HORVW (Hordeum vulgare [11]; 0.400 kg/ha): 0 (0 - No effect) | phytotoxicity rating SETVI (Setaria viridis [12]; 0.100 kg/ha): 0 (0 - No effect) | phytotoxicity rating SETVI (Setaria viridis [12]; 0.200 kg/ha): 3 (3 - Moderate effect) | phytotoxicity rating SETVI (Setaria viridis [12]; 0.400 kg/ha): 7 (7 - Good herbicidal effect) | phytotoxicity rating SETVI (Setaria viridis [12]; 0.800 kg/ha): 9 (9 - Complete kill) | phytotoxicity rating TRZAW (Triticum aestivum [13]; 0.100 kg/ha): 0 (0 - No effect) | phytotoxicity rating TRZAW (Triticum aestivum [13]; 0.200 kg/ha): 0 (0 - No effect) | phytotoxicity rating TRZAW (Triticum aestivum [13]; 0.400 kg/ha): 1 (1 - Trace effect) | phytotoxicity rating GLXMA (Glycine max [14]; 0.100 kg/ha): 0 (0 - No effect) | phytotoxicity rating GLXMA (Glycine max [14]; 0.200 kg/ha): 0 (0 - No effect) | phytotoxicity rating GLXMA (Glycine max [14]; 0.400 kg/ha): 0 (0 - No effect) | phytotoxicity rating GLXMA (Glycine max [14]; 0.800 kg/ha): 1 (1 - Trace effect) | phytotoxicity rating GALAP (Galium aparine; 0.100 kg/ha): 0 (0 - No effect) | phytotoxicity rating GALAP (Galium aparine; 0.200 kg/ha): 0 (0 - No effect) | phytotoxicity rating GALAP (Galium aparine; 0.400 kg/ha): 4 (4 - Injury) | phytotoxicity rating ZEAMX (Zea mays [15]; 0.100 kg/ha): 0 (0 - No effect) | phytotoxicity rating ZEAMX (Zea mays [15]; 0.200 kg/ha): 0 (0 - No effect) | phytotoxicity rating ZEAMX (Zea mays [15]; 0.400 kg/ha): 0 (0 - No effect) | phytotoxicity rating ZEAMX (Zea mays [15]; 0.800 kg/ha): 6 (6 - Herbicidal effect) | phytotoxicity rating ECHCG (Echinochloa crus-galli [16]; 0.100 kg/ha): 0 (0 - No effect) | phytotoxicity rating ECHCG (Echinochloa crus-galli [16]; 0.200 kg/ha): 0 (0 - No effect) | phytotoxicity rating ECHCG (Echinochloa crus-galli [16]; 0.400 kg/ha): 0 (0 - No effect) | phytotoxicity rating ECHCG (Echinochloa crus-galli [17]; 0.100 kg/ha): 2 (2 - Slight effect) | phytotoxicity rating ECHCG (Echinochloa crus-galli [17]; 0.200 kg/ha): 7 (7 - Good herbicidal effect) | phytotoxicity rating ECHCG (Echinochloa crus-galli [17]; 0.400 kg/ha): 8 (8 - Approaching complete kill) | phytotoxicity rating ECHCG (Echinochloa crus-galli [17]; 0.800 kg/ha): 9 (9 - Complete kill) | phytotoxicity rating ALOMY (Alopecurus myosuroides [18]; 0.100 kg/ha): 0 (0 - No effect) | phytotoxicity rating ALOMY (Alopecurus myosuroides [18]; 0.200 kg/ha): 2 (2 - Slight effect) | phytotoxicity rating ALOMY (Alopecurus myosuroides [18]; 0.400 kg/ha): 7 (7 - Good herbicidal effect) | phytotoxicity rating APESV (Apera spica venti [19]; 0.100 kg/ha): 0 (0 - No effect) | phytotoxicity rating APESV (Apera spica venti [19]; 0.200 kg/ha): 0 (0 - No effect) | phytotoxicity rating APESV (Apera spica venti [19]; 0.400 kg/ha): 1 (1 - Trace effect) | phytotoxicity rating AMATA (Amaranthus tuberculatus [20]; 0.100 kg/ha): 0 (0 - No effect) | phytotoxicity rating AMATA (Amaranthus tuberculatus [20]; 0.200 kg/ha): 0 (0 - No effect) | phytotoxicity rating AMATA (Amaranthus tuberculatus [20]; 0.400 kg/ha): 1 (1 - Trace effect) | phytotoxicity rating AMATA (Amaranthus tuberculatus [20]; 0.800 kg/ha): 3 (3 - Moderate effect) | phytotoxicity rating ORYSA (Oryza sativum [21]; 0.100 kg/ha): 1 (1 - Trace effect) | phytotoxicity rating ORYSA (Oryza sativum [21]; 0.200 kg/ha): 2 (2 - Slight effect) | phytotoxicity rating ORYSA (Oryza sativum [21]; 0.400 kg/ha): 4 (4 - Injury) | phytotoxicity rating ORYSA (Oryza sativum [21]; 0.800 kg/ha): 5 (5 - Definite injury) | phytotoxicity rating APESV (Apera spica venti [22]; 0.400 kg/ha): 3 (3 - Moderate effect) | phytotoxicity rating APESV (Apera spica venti [22]; 0.800 kg/ha): 7 (7 - Good herbicidal effect)
